# From patent US10517889B2, “Modulators of SMAD7 expression” (Ionis Pharmaceuticals, Inc., priority 2017, dated 2019)
# Several values for one entry are separate records, joined by “and”; a condition that tells them apart may be missing. Identical values can stand only once. Strand notation (5' to 3'): a small letter for the sugar, then the base; units joined by * are phosphorothioate-linked, units joined directly phosphodiester-linked; [ ] holds rarer units or linkages, { } end groups; capitals alone tell only the bases. e = 2'-O-(2-methoxyethyl) (MOE); [5mC] = 5-methylcytosine; d = 2'-deoxy (DNA)
# Experiments:
# human SMAD7 mRNA [1] = test: Dose-dependent inhibition of human SMAD7 mRNA expression in Hep3B cells (Example 3, Study 1 and 2); type: cell-based; conditions: electroporation; for % inhibition of SMAD7 mRNA expression: approximately 16 hours; for IC50: Study 1 (312.5-20000 nM)
# Method in brief: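 Hep3B cells, 20,000 per well, electroporated with antisense oligonucleotide at 0.31, 1.25, 5.00 or 20.00 μM (first series) or 0.74, 2.22, 6.67 or 20.00 μM (second series). After ~16 h, SMAD7 mRNA measured by RT-qPCR (RTS5062), normalised to RIBOGREEN total RNA. Percent inhibition vs untreated cells; IC50 derived.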
# human SMAD7 mRNA [2] = test: Antisense inhibition of human SMAD7 mRNA expression in Hep3B cells by 5-10-5 MOE gapmers, single concentration, electroporation, RT-PCR (Example 1, Study 1 and 2); type: cell-based
# Method in brief: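 Readout is percent SMAD7 mRNA inhibition versus untreated cells, measured by qRT-PCR (RTS5062) and corrected for total RNA by RIBOGREEN. Oligonucleotide, 5,000 nM or 15,000 nM, was delivered by electroporation into Hep3B cells at 20,000 per well. RNA was collected about 24 h later.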
# [3] = 312.5 nM, Study 1, relative to untreated control cells
# [4] = electroporation, 15,000 nM, approximately 24 hours, relative to untreated control cells, gapmers targeting SEQ ID NO: 1 and 2
# [5] = Study 2, electroporation with 15,000 nM antisense oligonucleotide, 5-10-5 MOE gapmers targeting SEQ ID NO: 1 and 2
# [6] = electroporation with 15,000 nM antisense oligonucleotide (Study 2), 5-10-5 MOE gapmers targeting SEQ ID NO: 1 and 2
Substance,% inhibition of SMAD7 mRNA expression (human SMAD7 mRNA [1]; [3]) [%],"% inhibition of SMAD7 mRNA expression (human SMAD7 mRNA [1]; 1250.0 nM, Study 1) [%]","% inhibition of SMAD7 mRNA expression (human SMAD7 mRNA [1]; 5000.0 nM, Study 1) [%]","% inhibition of SMAD7 mRNA expression (human SMAD7 mRNA [1]; 20000.0 nM, Study 1) [%]",IC50 (human SMAD7 mRNA [1]),% inhibition of SMAD7 mRNA expression (human SMAD7 mRNA [2]; [4]) [%],% inhibition of SMAD7 mRNA expression (human SMAD7 mRNA [2]; [5]) [%],% inhibition of SMAD7 mRNA expression (human SMAD7 mRNA [2]; [6]) [%],% Inhibition of SMAD7 mRNA (human SMAD7 mRNA [2]; [6]) [%]
771581 (antisense eG*eG*eG*eA*e[5mC]*d[5mC]*d[5mC]*d[5mC]*dA*dG*d[5mC]*d[5mC]*dG*d[5mC]*d[5mC]*eA*eG*e[5mC]*eT*eT) [compound 771581],0,0,9,65,19 µM,58,,,
771583 (antisense eT*eG*e[5mC]*eT*e[5mC]*d[5mC]*dT*dG*dG*d[5mC]*dA*dG*d[5mC]*dT*dG*e[5mC]*eT*eG*eG*eG) [compound 771583],0,15,36,59,10 µM,,57,,
771610 (antisense eA*e[5mC]*e[5mC]*eT*eG*dA*dT*dG*dT*d[5mC]*dA*d[5mC]*d[5mC]*dA*dG*eG*eG*e[5mC]*eA*eG) [compound 771610],0,0,37,38,> 20 µM,,,52,
771632 (antisense eA*eA*eT*e[5mC]*e[5mC]*dT*dT*d[5mC]*dT*dT*dG*dG*dA*dG*dG*eG*eA*eA*eG*eG) [compound 771632],6,6,46,64,9 µM,,,31,54
771634 (antisense eT*eG*eA*e[5mC]*eG*dG*dA*d[5mC]*d[5mC]*dA*dA*dA*dT*d[5mC]*d[5mC]*eT*eT*e[5mC]*eT*eT) [compound 771634],0,3,40,36,> 20 µM,,,53,
771636 (antisense e[5mC]*e[5mC]*eT*eT*eG*dG*dG*dT*dT*dA*dT*dG*dA*d[5mC]*dG*eG*eA*e[5mC]*e[5mC]*eA) [compound 771636],,,,,> 20 µM and 16 µM,,0,,
771641 (antisense eA*eG*eT*eT*eA*dG*dG*dT*dG*dT*d[5mC]*dA*dG*d[5mC]*d[5mC]*eT*eA*eG*eG*eA) [compound 771641],3,16,24,50,> 20 µM,,,71,
771661 (antisense eA*eA*eT*eG*e[5mC]*dT*dT*d[5mC]*dT*d[5mC]*dT*dT*dG*dT*dT*e[5mC]*eA*eT*eT*eT) [compound 771661],0,0,6,28,> 20 µM,69,,,
771663 (antisense eT*eT*e[5mC]*e[5mC]*eA*dA*dT*dG*dA*dG*dA*dA*dT*dG*d[5mC]*eT*eT*e[5mC]*eT*e[5mC]) [compound 771663],10,24,43,56,11 µM,,56,,
771670 (antisense eA*eG*eT*e[5mC]*e[5mC]*dT*dT*dT*d[5mC]*dT*d[5mC]*dT*d[5mC]*dT*d[5mC]*eA*eA*eA*eG*e[5mC]) [compound 771670],0,0,21,47,> 20 µM,,46,,
